Measurements: patent US20030004172A1, “Fused pyrimidinone matrix metalloproteinase inhibitors” (priority 2001, published 2003)

Target: MMP-13CD (catalytic domain of collagenase-3) (Homo sapiens, UniProt P45452)
Assay: Thiopeptolide substrate hydrolysis inhibition assay, MMP-13CD
Type: biochemical
Conditions: Table I; thiopeptolide substrate, HEPES pH 7.0, 22° C.; read-out: MMP-13CD IC50
Source text: Thiopeptolide substrates show virtually no decomposition or hydrolysis at or below neutral pH in the absence of a matrix metalloproteinase enzyme.

| SMILES | IC50 [nM] |
| --- | --- |
| COc1ccccc1CCNC(=O)c1cc2c(=O)n(Cc3ccccc3)c(=O)n(C)c2s1 [Example 348, 3-Benzyl-1-methyl-2,4-dioxo-1,2,3,4-tetrahydro-thieno[2,3-d]pyrimidine-6-carboxylic acid[2-(2-methoxy-phenyl)-ethyl]-amide] | 30000 |
| Cn1c(=O)n(Cc2ccccc2)c(=O)c2cc(C(=O)NCCc3cccc(C(F)(F)F)c3)sc21 [Example 349, 3-Benzyl-1-methyl-2,4-dioxo-1,2,3,4-tetrahydro-thieno[2,3-d]pyrimidine-6-carboxylic acid[2-(3-trifluoromethyl-phenyl)-ethyl]-amide] | > 100000 |
| Cn1c(=O)n(Cc2ccccc2)c(=O)c2cc(C(=O)NCc3cc(Cl)cc(Cl)c3)sc21 [Example 352, 3-Benzyl-1-methyl-2,4-dioxo-1,2,3,4-tetrahydro-thieno[2,3-d]pyrimidine-6-carboxylic acid 3 ,5-dichloro-benzylamide] | > 100000 |
| Cn1c(=O)n(Cc2ccccc2)c(=O)c2cc(C(=O)NC3CCc4ccccc43)sc21 (centres unmarked) [Example 353, 3-Benzyl-1-methyl-2,4-dioxo-1,2,3,4-tetrahydro-thieno[2,3-d]pyrimidine-6-carboxylic acid indan-1-ylamide] | > 100000 |
| Cn1c(=O)n(Cc2ccccc2)c(=O)c2cc(C(=O)NCc3ccco3)sc21 [Example 354, 3-Benzyl-1-methyl-2,4-dioxo-1,2,3,4-tetrahydro-thieno[2,3-d]pyrimidine-6-carboxylic acid (furan-2-ylmethyl)-amide] | 30000 |
| COc1ccc(CCNC(=O)c2cc3c(=O)n(Cc4ccccc4)c(=O)n(C)c3s2)cc1 [Example 355, 3-Benzyl-1-methyl-2,4-dioxo-1,2,3,4-tetrahydro-thieno[2,3-d]pyrimidine-6-carboxylic acid[2-(4-methoxy-phenyl)-ethyl]-amide] | > 100000 |
| COc1ccc(CNC(=O)c2cc3c(=O)n(Cc4ccccc4)c(=O)n(C)c3s2)c(OC)c1 [Example 356, 3-Benzyl-1-methyl-2,4-dioxo-1,2,3,4-tetrahydro-thieno[2,3-d]pyrimidine-6-carboxylic acid 2,4-dimethoxy-benzylamide] | 10000 |
| CC(NC(=O)c1cc2c(=O)n(Cc3ccccc3)c(=O)n(C)c2s1)c1ccccc1 (centres unmarked) [Example 358, 3-Benzyl-1-methyl-2,4-dioxo-1,2,3,4-tetrahydro-thieno[2,3-d]pyrimidine-6-carboxylic acid (1-phenyl-ethyl)-amide] | > 100000 |
| Cn1c(=O)n(Cc2ccccc2)c(=O)c2cc(C(=O)NCCc3ccccn3)sc21 [Example 361, 3-Benzyl-1-methyl-2,4-dioxo-1,2,3,4-tetrahydro-thieno[2,3-d]pyrimidine-6-carboxylic acid (2-pyridin-2-yl-ethyl)-amide] | 7700 |
| Cc1ccc(CCNC(=O)c2cc3c(=O)n(Cc4ccccc4)c(=O)n(C)c3s2)c(C)c1 [Example 362, 3-Benzyl-1-methyl-2,4-dioxo-1,2,3,4-tetrahydro-thieno[2,3-d]pyrimidine-6-carboxylic acid[2-(2,4-dimethyl-phenyl)-ethyl]-amide] | > 100000 |
| Cn1c(=O)n(Cc2ccccc2)c(=O)c2cc(C(=O)NCCc3ccc(Cl)cc3Cl)sc21 [Example 363, 3-Benzyl-1-methyl-2,4-dioxo-1,2,3,4-tetrahydro-thieno[2,3-d]pyrimidine-6-carboxylic acid[2-(2,4-dichloro-phenyl)-ethyl]-amide] | 30000 |

The next molecules have a lower IC50 than those just listed; values first:

| IC50 [nM] | SMILES |
| --- | --- |
| 930 | Cn1c(=O)n(Cc2ccccc2)c(=O)c2cc(C(=O)NCc3ccc(Br)cc3)sc21 [Example 350, 3-Benzyl-1-methyl-2,4-dioxo-1,2,3,4-tetrahydro-thieno[2,3-d]pyrimidine-6-carboxylic acid 4-bromo-benzylamide] |
| 2000 | Cn1c(=O)n(Cc2ccccc2)c(=O)c2cc(C(=O)NCCc3c[nH]c4ccccc34)sc21 [Example 351, 3-Benzyl-1-methyl-2,4-dioxo-1,2,3,4-tetrahydro-thieno[2,3-d]pyrimidine-6-carboxylic acid[2-(1H-indol-3-yl)-ethyl]-amide] |
| 320 | Cn1c(=O)n(Cc2ccccc2)c(=O)c2cc(C(=O)NCc3ccc(Cl)cc3)sc21 [Example 357, 3-Benzyl-1-methyl-2,4-dioxo-1,2,3,4-tetrahydro-thieno[2,3-d]pyrimidine-6-carboxylic acid 4-chloro-benzylamide] |
| 1000 | Cn1c(=O)n(Cc2ccccc2)c(=O)c2cc(C(=O)NCc3ccc(Cl)c(Cl)c3)sc21 [Example 359, 3-Benzyl-1-methyl-2,4-dioxo-1,2,3,4-tetrahydro-thieno[2,3-d]pyrimidine-6-carboxylic acid 3,4-dichloro-benzylamide] |
| 270 | Cn1c(=O)n(Cc2ccccc2)c(=O)c2cc(C(=O)NCc3ccc(F)c(C(F)(F)F)c3)sc21 [Example 360, 3-Benzyl-1-methyl-2,4-dioxo-1,2,3,4-tetrahydro-thieno[2,3-d]pyrimidine-6-carboxylic acid 4-fluoro-3-trifluoromethyl-benzylamide] |
| 1550 | COc1ccc(CNC(=O)c2cc3c(=O)n(CC#N)c(=O)n(C)c3s2)cc1 [Example 365, 3-Cyanomethyl-1-methyl-2,4-dioxo-1,2,3,4-tetrahydro-thieno[2,3-d]pyrimidine-6-carboxylic acid 4-methoxy-benzylamide] |
| 8.25 | COc1cccc(CNC(=O)c2cc3c(=O)n(Cc4ccc(S(=O)(=O)NC5CC5)cc4)c(=O)n(C)c3s2)c1 [Example 367, 3-(4-Cyclopropylsulfamoyl-benzyl)-1-methyl-2,4-dioxo-1,2,3,4-tetrahydro-thieno[2,3-d]pyrimidine-6-carboxylic acid 3-methoxy-benzylamide] |
| 735 | COc1cccc(CNC(=O)c2cc3c(=O)n(Cc4ccc([N+](=O)[O-])nc4)c(=O)n(C)c3s2)c1 [Example 368, 1-Methyl-3-(6-nitro-pyridin-3-ylmethyl)-2,4-dioxo-1,2,3,4-tetrahydro-thieno[2,3-d]pyrimidine-6-carboxylic acid 3-methoxy-benzylamide] |
| 1170 | COc1cc(CNC(=O)c2cc3c(=O)n(Cc4ccc([N+](=O)[O-])nc4)c(=O)n(C)c3s2)ccn1 [Example 370, 1-Methyl-3-(6-nitro-pyridin-3-ylmethyl)-2,4-dioxo-1,2,3,4-tetrahydro-thieno[2,3-d]pyrimidine-6-carboxylic acid (2-methoxy-pyridin-4-ylmethyl)-amide] |
| 220 | COc1cc(CNC(=O)c2cc3c(=O)n(CC4CCCCC4)c(=O)n(C)c3s2)ccn1 [Example 371, 3-Cyclohexylmethyl-1-methyl-2,4-dioxo-1,2,3,4-tetrahydro-thieno[2,3-d]pyrimidine-6-carboxylic acid (2-methoxy-pyridin-4-ylmethyl)-amide] |
| 660 | COc1cccc(CNC(=O)c2cc3c(=O)n(Cc4ccc(N)nc4)c(=O)n(C)c3s2)c1 [Example 384, 3-(6-Amino-pyridin-3-ylmethyl)-1-methyl-2,4-dioxo-1,2,3,4-tetrahydro-thieno[2,3-d]pyrimidine-6-carboxylic acid 3-methoxy-benzylamide] |
| 7 | COc1ccc(CNC(=O)c2cc3c(=O)n(CC#Cc4ccccc4)c(=O)n(C)c3s2)cc1 [Example 385, 1-Methyl-2,4-dioxo-3-(3-phenyl-prop-2-ynyl)-1,2,3,4-tetrahydro-thieno[2,3-d]pyrimidine-6-carboxylic acid 4-methoxy-benzylamide] |
